These results are taken from patent US8492105B2, “Screening method for an insulin resistance improving agent or a therapeutic agent for diabetes” (Fujitsu Limited, priority 2009, dated 2013).

In experiment [1] the target is T1, phosphorylation of Ser727 of STAT3 by ERK2 (Homo sapiens, UniProt P28482).
T1 construct: purchased Biosource Inc. (Active ERK); Abcam Inc. (STAT3)
Description: Phosphorylation inhibitory activity test by western blotting (anti-pS727 STAT). It is filed as biochemical. The following applies: 1 mM 5-iodotubercidin (final 1.14 mM), 22% DMSO (Sample 3); 30° C. 130 min; vs control Sample 1.
Description: The following ingredients were used at a composition indicated in Table 1 to prepare a reaction liquid: 5× reaction buffer (250 mM tris-HCl (pH 7.5), 50 mM magnesium chloride, 0.1% by mass bovine serum albumin (BSA) and 5 mM dithiothreitol (DTT)), Active ERK solution (0.1 mg/mL) (product of Biosource Inc.), STAT3 solution (0.2 mg/mL) (product of Abcam Inc.) and distilled water.
Also, 5-iodotubercidin (product of Calbiochem Inc.) was used as a control compound.
The 5-iodotubercidin was suspended in DMSO so that the final concentration thereof was adjusted to 5 mM.
Furthermore, distilled water was added to the samples so as to appropriately adjust the volume thereof, whereby reaction mixtures were obtained.
Each of the reaction mixtures was incubated at 30° C. for 130 min to allow Active ERK2 to phosphorylate the Ser727 of the STAT3.
After that, to terminate the phosphorylation, 0.5M ethylenediamine tetraacetate (EDTA) was added in an amount of 2.75 μL to the reaction mixtures serving as a control (Table 2: Sample 1 or 2), and was added in an amount of 5.5 μL to the reaction mixture containing the 5-iodotubercidin (Table 2: Sample 3) or the reaction mixture containing the peptide (Table 2: Sample 4). […]

A further experiment has as its system db/db mice. Put plainly: Efficacy test, 28-day daily intraperitoneal injection (blood glucose, insulin, HOMA-IR). The format is in vivo, mouse. The method, then: Fifty mice described in Test Example 2 were used as a test animal.
Specifically, 3.8 mg of the above peptide was dissolved in 4.75 mL of physiological saline to prepare a 0.8 mg/mL peptide solution (hereinafter may be referred to as “peptide solution 2”). Then, 1.75 mL of the peptide solution 2 was dissolved in 3.5 mL of physiological saline to prepare a 0.27 mg/mL peptide solution (hereinafter may be referred to as “peptide solution 3”). Further, 1 mL of the peptide solution 3 was dissolved in 2 mL of physiological saline to prepare a 0.09 mg/mL peptide solution (hereinafter may be referred to as “peptide solution 4”).
A metformin solution used for an activity control group was prepared as follows. Specifically, 120 mg of metformin (product of Sigma Co.) was dissolved in 4 mL of physiological saline to prepare a 30 mg/mL metformin solution.
The efficacy test was conducted using the following five administration groups: a solvent (physiological saline) control administration group, a 150 mg/kg metformin administration group (serving as an activity control group), a 4.00 mg/kg peptide (expressed by SEQ ID No. 1) administration group, a 1.33 mg/kg peptide administration group and a 0.44 mg/kg peptide administration group. Each administration group had 10 mice.
The above-prepared solutions were intraperitoneally injected every day to all of the mice of the test groups at the corresponding doses given in the following Table 4 for 28 days. The body weight, the fasting blood glucose level, the postprandial blood glucose level and the fasting blood insulin level were measured by the below-described measuring method according to the measurement schedule given in the following Table 5.
The calculating method for the HOMA-IR value is described below.
To measure the fasting blood glucose level and blood insulin level, 50 μL of blood was sampled from the postorbital region on Day 0, Day 14 and Day 28 after administration. The serum was obtained in the same manner as in Test Example 2.
The postprandial blood glucose level was measured using blood sampled from the tail vein on Day 1, Day 13, and Day 27 after administration.
The blood glucose level and blood insulin level were measured in the same manner as in Test Example 2.
The insulin resistance was determined by the HOMA (homeostasis model assessment) method using the following calculation formula. HOMA-IR (index of insulin resistance)=fasting insulin level (μU/mL)×fasting blood glucose level (mmol/L)/22.5
All of the values are indicated as “average value±average error.” The important differences between the groups and within each group were evaluated through one-way variance analysis and Dunnett's multiple comparison. The p-values equal to or lower than 0.05 were regarded as statistically significant.

Where [2] appears, read: Metformin 150 mg/kg group, Day 0.
Where [3] appears, read: Metformin 150 mg/kg intraperitoneal every day, Day 28.
The mark [4] stands for this setting: Metformin 150 mg/kg intraperitoneal every day, Day 28 minus Day 0.

T1 sequence (P28482 whole entry): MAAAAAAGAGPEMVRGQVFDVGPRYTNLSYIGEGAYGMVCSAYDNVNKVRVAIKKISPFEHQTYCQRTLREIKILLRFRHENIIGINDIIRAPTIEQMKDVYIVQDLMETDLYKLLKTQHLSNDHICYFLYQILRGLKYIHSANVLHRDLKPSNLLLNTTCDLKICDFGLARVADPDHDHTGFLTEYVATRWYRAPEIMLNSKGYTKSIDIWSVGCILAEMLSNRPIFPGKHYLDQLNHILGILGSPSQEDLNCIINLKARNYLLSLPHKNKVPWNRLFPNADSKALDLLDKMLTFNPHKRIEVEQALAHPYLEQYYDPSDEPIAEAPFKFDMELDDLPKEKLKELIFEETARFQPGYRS

In the case of 5-iodotubercidin, in experiment [1], the “band of STAT3 whose Ser727 has been phosphorylated (western blotting)” value is “lower in intensity than the band detected in the control”.
Consider `CN(C)C(=N)N=C(N)N` [Metformin, metformin], for which the “Fasting blood insulin level” value in the experiment with db/db mice (setting [2]) is listed as 8.81 ± 1.33 ng/mL; in the experiment on db/db mice (setting [3]), 4.06 ± 0.84 ng/mL. The HOMA-IR value with db/db mice (setting [2]) was 139.4 ± 22.7; with db/db mice (Metformin 150 mg/kg intraperitoneal every day, Day 28, # p < 0.05 vs. solvent control group), 79.6 ± 17.7^#. Moreover, the “Fasting blood glucose level” value was found to be 16.3 ± 1.3 mM in the experiment on db/db mice (Metformin 150 mg/kg group, Day 0, average ± average error, 10 mice); 19.3 ± 1.5 mM in the experiment on db/db mice (Metformin 150 mg/kg intraperitoneal every day, Day 14); 22.0 ± 3.1 mM with db/db mice (setting [3]). The “Postprandial blood glucose level” value stood at 22.5 ± 2.0 mM in the experiment with db/db mice (Metformin 150 mg/kg group, Day 1, average ± average error, 10 mice); 25.2 ± 2.0 mM in the experiment with db/db mice (Metformin 150 mg/kg intraperitoneal every day, Day 13); 28.1 ± 1.6 mM with db/db mice (Metformin 150 mg/kg intraperitoneal every day, Day 27). For the same molecule, the “Increment in fasting blood glucose level” value was 5.8 ± 2.4 mM in the experiment with db/db mice (setting [4]) and 5.8 ± 2.4 mM in the experiment with db/db mice (Metformin 150 mg/kg intraperitoneal every day, Day 28 minus Day 0, listed as metformin). In addition, the “Increment in fasting blood insulin level” value in the experiment on db/db mice (setting [4]) is -4.94 ± 1.77 ng/mL. In addition, the “Increment in postprandial blood glucose level” value in the experiment on db/db mice (Metformin 150 mg/kg intraperitoneal every day, Day 28 minus Day 0 as printed, # p < 0.05 vs. solvent control group) is 4.3 ± 2.2^# mM. In addition, the “suppression of increase in fasting blood glucose level (significance)” value with db/db mice (Metformin 150 mg/kg, Day 0 to Day 28, vs solvent control group) is “not statistically significant”. In addition, in the experiment with db/db mice (Metformin 150 mg/kg, Day 28), the “HOMA-IR value (index of insulin resistance), change” value is reported as “significantly decreased”.
